In the supplement of paper PMC10307832:

Assays:
Assay in all cases: relative viability (nuclei count vs DMSO), 5 days (fraction); higher = more cells survive
[1] = compound: CN(C)C[C@@H]1CCn2cc(c3ccccc32)C2=C(C(=O)NC2=O)c2cn(c3ccccc23)CCO1 [Ruboxistaurin] + C[C@]1(O)C[C@@H](c2nc(-c3ccc4ccc(-c5ccccc5)nc4c3)c3c(N)nccn32)C1 [Linsitinib] (partner 1 µM)
Outline: (§1)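 Relative viability equals treated-well nuclei counts divided by vehicle-well nuclei counts. Counts came from 4× images of lung cancer cell lines grown in 1536-well plates for 5 days after pin-tool dosing on the day after seeding. Dosing used one drug alone or a fixed anchor-drug dose plus five library-drug doses (not always all listed) in √10 steps, and values are medians of duplicate plates.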

[2] = compound: CN(C)C[C@@H]1CCn2cc(c3ccccc32)C2=C(C(=O)NC2=O)c2cn(c3ccccc23)CCO1 [Ruboxistaurin] + O=C(c1cc(Cc2n[nH]c(=O)c3ccccc23)ccc1F)N1CCN(C(=O)C2CC2)CC1 [Olaparib] (partner 8 µM)
Outline: as §1

[3] = compound: CN(C)C[C@@H]1CCn2cc(c3ccccc32)C2=C(C(=O)NC2=O)c2cn(c3ccccc23)CCO1 [Ruboxistaurin] + O=C(CCCCCCC(=O)Nc1ccccc1)NO [Vorinostat] (partner 1 µM)
Outline: as §1

[4] = compound: CN(C)C[C@@H]1CCn2cc(c3ccccc32)C2=C(C(=O)NC2=O)c2cn(c3ccccc23)CCO1 [Ruboxistaurin] + Cc1nc(Nc2ncc(C(=O)Nc3c(C)cccc3Cl)s2)cc(N2CCN(CCO)CC2)n1 [Dasatinib] (partner 0.075 µM)
Outline: as §1

[5] = compound: CN(C)C[C@@H]1CCn2cc(c3ccccc32)C2=C(C(=O)NC2=O)c2cn(c3ccccc23)CCO1 [Ruboxistaurin] + Cc1cc(Nc2cc(N3CCN(C)CC3)nc(Sc3ccc(NC(=O)C4CC4)cc3)n2)n[nH]1 [Tozasertib] (partner 0.1 µM)
Outline: as §1

Row | Cell Line | relative viability ([1]; first compound 0.08 µM) | relative viability ([1]; first compound 0.8 µM) | relative viability ([1]; first compound 2.53 µM) | relative viability ([1]; first compound 8 µM) | relative viability ([2]; first compound 0.08 µM) | relative viability ([2]; first compound 0.8 µM) | relative viability ([2]; first compound 2.53 µM) | relative viability ([2]; first compound 8 µM) | relative viability ([3]; first compound 0.08 µM) | relative viability ([3]; first compound 0.8 µM) | relative viability ([3]; first compound 2.53 µM) | relative viability ([3]; first compound 8 µM) | relative viability ([4]; first compound 0.08 µM) | relative viability ([4]; first compound 0.8 µM) | relative viability ([4]; first compound 2.53 µM) | relative viability ([4]; first compound 8 µM) | relative viability ([5]; first compound 0.08 µM) | relative viability ([5]; first compound 0.8 µM) | relative viability ([5]; first compound 2.53 µM) | relative viability ([5]; first compound 8 µM)
1 | LXF-289 | 0.925 | 0.951 | 0.966 | 1.05 | 1.08 | 1.01 | 1.07 | 1.18 | 0.858 | 0.787 | 0.777 | 0.918 | 0.243 | 0.206 | 0.273 | 0.22 | 0.216 | 0.157 | 0.195 | 0.209
2 | NCI-H23 | 0.627 | 0.402 | 0.544 | 0.484 | 0.41 | 0.251 | 0.361 | 0.254 | 0.425 | 0.564 | 0.548 | 0.453 | 0.849 | 0.732 | 0.769 | 0.794 | 0.446 | 0.304 | 0.357 | 0.368
3 | NCI-H322M | 0.969 | 0.826 | 0.861 | 0.779 | 0.764 | 0.675 | 0.805 | 0.329 | 0.878 | 0.753 | 0.737 | 0.556 | 0.265 | 0.267 | 0.257 | 0.228 | 0.49 | 0.426 | 0.431 | 0.346
4 | NCI-H358 | 0.835 | 0.59 | 0.63 | 0.367 | 0.748 | 0.587 | 0.604 | 0.458 | 0.865 | 0.659 | 0.768 | 0.666 | 0.177 | 0.149 | 0.149 | 0.148 | 0.116 | 0.0986 | 0.118 | 0.0882
5 | NCI-H441 | 0.633 | 0.508 | 0.495 | 0.458 | 0.498 | 0.532 | 0.643 | 0.643 | 0.953 | 0.989 | 0.787 | 0.724 | 0.538 | 0.525 | 0.494 | 0.577 | 0.663 | 0.594 | 0.638 | 0.554
6 | NCI-H460 | 0.919 | 0.6 | 0.855 | 0.349 | 0.461 | 0.398 | 0.415 | 0.391 | 0.859 | 0.651 | 0.711 | 0.316 | 0.552 | 0.35 | 0.602 | 0.327 | 0.411 | 0.257 | 0.405 | 0.29
7 | NCI-H520 | 0.991 | 0.998 | 0.985 | 1.12 | 0.321 | 0.341 | 0.328 | 0.291 | 0.883 | 0.723 | 0.735 | 0.672 | 0.195 | 0.157 | 0.176 | 0.129 | 0.477 | 0.456 | 0.398 | 0.456
8 | NCI-H596 | 1.14 | 1.01 | 1.08 | 0.857 | 0.545 | 0.59 | 0.692 | 0.659 | 0.817 | 0.428 | 0.578 | 0.576 | 0.65 | 0.488 | 0.63 | 0.547 | 0.932 | 0.8 | 0.729 | 0.889
9 | NCI-H647 | 1.2 | 0.923 | 1.24 | 1.02 | 0.575 | 0.563 | 0.912 | 0.562 | 0.673 | 0.447 | 0.725 | 0.719 | 0.185 | 0.127 | 0.149 | 0.154 | 0.199 | 0.272 | 0.369 | 0.172
10 | NCI-H650 | 0.94 | 0.799 | 1.06 | 0.801 | 0.462 | 0.352 | 0.47 | 0.425 | 0.456 | 0.383 | 0.454 | 0.717 | 0.5 | 0.384 | 0.516 | 0.433 | 0.81 | 0.685 | 0.82 | 0.863
11 | NCI-H661 | 0.809 | 0.538 | 0.718 | 0.545 | 0.844 | 0.717 | 0.795 | 0.81 | 0.869 | 0.773 | 0.781 | 0.94 | 0.982 | 0.776 | 1.01 | 1.04 | 0.366 | 0.332 | 0.372 | 0.344
12 | NCI-H727 | 0.312 | 0.288 | 0.296 | 0.267 | 0.625 | 0.7 | 0.722 | 0.521 | 1.1 | 1.14 | 1.13 | 1.28 | 0.474 | – | 0.296 | 0.324 | 0.69 | 0.463 | 0.579 | 0.536
13 | NCI-H838 | 1.09 | 0.91 | 1.02 | 0.744 | 0.867 | 0.751 | 0.838 | 0.641 | 0.813 | 0.665 | 0.742 | 0.734 | 0.327 | 0.209 | 0.286 | 0.326 | 0.28 | 0.246 | 0.287 | 0.292
14 | NCI-H1355 | 0.904 | 0.753 | 0.728 | 0.658 | 0.763 | 0.712 | 0.734 | 0.742 | 0.693 | 0.604 | 0.62 | 0.583 | 0.774 | 0.614 | 0.638 | 0.464 | 0.529 | 0.485 | 0.484 | 0.38
15 | NCI-H1395 | 1.22 | 1.02 | 1.26 | 1.08 | 0.465 | 0.397 | 0.466 | 0.474 | 0.813 | 0.739 | 0.707 | 0.688 | 0.444 | 0.427 | 0.386 | 0.372 | 0.774 | 0.709 | 0.79 | 0.7
16 | NCI-H1437 | 1.01 | 0.941 | 1.17 | 0.746 | 0.661 | 0.613 | 0.666 | 0.712 | 0.834 | 0.724 | 0.825 | 0.798 | 0.438 | 0.367 | 0.326 | 0.392 | 0.434 | 0.365 | 0.378 | 0.417
